What was measured:
p-H2A.X = assay: Western blot of H2A.X phosphorylation (DNA damage) in TNBC cells; assay type: cell-based, human; conditions: TNBC cell lines, 48 h
Description: Western blot analysis was performed as previously described, and all western blot analyses were performed at least three times.
Western blot analysis was performed as previously described. Briefly, whole cell or tissue lysates were prepared using ice-cold Nonidet P-40 buffer mixed with protease and phosphatase inhibitors (Roche, IN, USA) and centrifuged at 14,000 × g at 4 °C for 10 min. The protein lysates were fractionated by sodium dodecyl sulfate–polyacrylamide gel electrophoresis (SDS–PAGE) and transferred to polyvinylidene fluoride (PVDF) membranes (Merck, Darmstadt, Germany). Membranes were incubated in 1× TBST buffer containing 5% nonfat powdered milk at room temperature for 2 h. The indicated primary antibody was incubated with PVDF membranes, followed by a washing step using 1× TBST and a secondary antibody conjugated to HRP. Signal detection was carried out using the Western ECL Substrate kit (Bio-Rad, Hercules, CA, USA). […]

recombinant HDAC6 = molecular target: T1, recombinant HDAC6 (Homo sapiens, UniProt Q9UBN7); assay: HDAC6 inhibition assay (Ac-peptide-AMC fluorescence); assay type: biochemical
T1 construct: purchased BPS Bioscience
T1 sequence (Q9UBN7 1-1215): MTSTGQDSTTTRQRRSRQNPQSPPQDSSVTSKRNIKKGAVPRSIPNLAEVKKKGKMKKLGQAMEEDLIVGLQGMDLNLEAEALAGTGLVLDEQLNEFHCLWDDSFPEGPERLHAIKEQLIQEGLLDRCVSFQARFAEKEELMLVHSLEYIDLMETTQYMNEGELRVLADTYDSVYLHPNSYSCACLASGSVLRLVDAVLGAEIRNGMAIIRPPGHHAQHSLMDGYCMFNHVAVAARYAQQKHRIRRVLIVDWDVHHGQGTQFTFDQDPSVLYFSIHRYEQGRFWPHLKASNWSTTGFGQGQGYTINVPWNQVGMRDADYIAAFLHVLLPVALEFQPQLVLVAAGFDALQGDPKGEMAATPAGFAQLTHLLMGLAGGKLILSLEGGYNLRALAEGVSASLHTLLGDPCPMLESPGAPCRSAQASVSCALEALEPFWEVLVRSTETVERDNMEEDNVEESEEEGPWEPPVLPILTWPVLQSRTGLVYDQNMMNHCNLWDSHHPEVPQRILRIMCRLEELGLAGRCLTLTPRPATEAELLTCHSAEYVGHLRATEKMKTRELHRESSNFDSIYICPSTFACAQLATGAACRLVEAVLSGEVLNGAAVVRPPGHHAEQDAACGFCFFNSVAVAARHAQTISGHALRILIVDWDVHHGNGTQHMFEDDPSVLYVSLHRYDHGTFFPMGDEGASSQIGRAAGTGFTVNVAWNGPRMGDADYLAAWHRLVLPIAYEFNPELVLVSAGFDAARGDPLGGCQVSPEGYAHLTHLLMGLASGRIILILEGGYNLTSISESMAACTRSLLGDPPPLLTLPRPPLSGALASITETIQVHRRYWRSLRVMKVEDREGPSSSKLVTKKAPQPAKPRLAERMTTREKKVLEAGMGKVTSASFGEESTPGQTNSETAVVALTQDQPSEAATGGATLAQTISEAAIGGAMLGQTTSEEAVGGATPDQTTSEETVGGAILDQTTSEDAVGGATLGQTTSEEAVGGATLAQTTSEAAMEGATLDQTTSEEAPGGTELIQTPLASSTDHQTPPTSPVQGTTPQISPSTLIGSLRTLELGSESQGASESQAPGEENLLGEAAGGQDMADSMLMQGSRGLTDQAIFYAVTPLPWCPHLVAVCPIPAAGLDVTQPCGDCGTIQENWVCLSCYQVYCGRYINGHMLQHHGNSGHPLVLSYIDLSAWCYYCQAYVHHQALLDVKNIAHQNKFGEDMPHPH
Description: The in vitro HDAC inhibition assays were carried out by Sundia MediTech Co. Ltd. in Shanghai, China. […] Reactions were stopped with trypsin, and the samples were incubated for another 90 min at 37 °C. […] IC50 values were obtained using GraphPad Prism software.

PARP1 = molecular target: T2, PARP1 (Homo sapiens, UniProt P09874); assay: PARP1 enzymatic inhibition assay (PARP1 Colorimetric Assay Kit); assay type: biochemical
T2 construct: purchased BPS Bioscience 80580
T2 sequence (P09874 whole entry): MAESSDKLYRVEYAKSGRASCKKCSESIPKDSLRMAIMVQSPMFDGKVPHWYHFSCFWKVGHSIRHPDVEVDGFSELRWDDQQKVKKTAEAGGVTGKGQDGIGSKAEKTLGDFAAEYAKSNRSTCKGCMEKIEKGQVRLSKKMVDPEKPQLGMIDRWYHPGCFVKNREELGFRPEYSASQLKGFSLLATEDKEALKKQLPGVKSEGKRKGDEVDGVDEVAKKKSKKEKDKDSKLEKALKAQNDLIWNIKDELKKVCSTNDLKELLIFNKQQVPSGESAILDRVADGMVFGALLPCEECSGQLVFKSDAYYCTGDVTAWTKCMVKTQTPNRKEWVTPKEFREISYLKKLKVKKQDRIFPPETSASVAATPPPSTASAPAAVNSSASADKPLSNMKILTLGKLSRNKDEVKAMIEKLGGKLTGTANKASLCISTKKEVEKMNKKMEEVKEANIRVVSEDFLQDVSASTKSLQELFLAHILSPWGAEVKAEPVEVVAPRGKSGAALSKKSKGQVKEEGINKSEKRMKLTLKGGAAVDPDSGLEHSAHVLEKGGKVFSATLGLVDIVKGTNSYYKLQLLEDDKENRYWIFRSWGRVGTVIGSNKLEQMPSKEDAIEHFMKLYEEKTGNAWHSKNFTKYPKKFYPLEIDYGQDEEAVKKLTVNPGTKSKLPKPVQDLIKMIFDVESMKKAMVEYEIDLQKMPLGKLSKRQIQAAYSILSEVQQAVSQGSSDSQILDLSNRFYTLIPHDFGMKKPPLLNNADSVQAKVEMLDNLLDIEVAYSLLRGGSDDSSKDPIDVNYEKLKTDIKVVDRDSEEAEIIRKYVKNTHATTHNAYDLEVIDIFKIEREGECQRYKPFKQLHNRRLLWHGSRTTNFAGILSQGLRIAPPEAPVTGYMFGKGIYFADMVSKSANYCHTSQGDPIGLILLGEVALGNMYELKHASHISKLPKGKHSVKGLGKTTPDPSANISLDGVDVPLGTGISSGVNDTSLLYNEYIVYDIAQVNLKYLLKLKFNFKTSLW
Description: Briefly, the 1× histone mixture was added to each well and incubated overnight at 4 °C. Each well was washed three times with 200 µL 1× TBST buffer and filled with 200 µL Blocking buffer at room temperature for 90 min. Then, each well was filled with 25 µL of PARP master mixture (5 μL activated DNA + 2.5 μL 10× PARP Assay mixture + 2.5 μL 10× PARP buffer + 15 μL distilled water). Next, 5 µL of the compound of different concentrations was added to each well, and PARP enzyme was added and incubated at room temperature for 1 h. Next, streptavidin HRP solution was added and incubated at room temperature for 30 min. After adding 100 µL of colorimetric HRP substrate to each well, the plate was incubated until a blue color developed in the positive well, which contained PARP enzyme without inhibitors. The reaction was then quenched with 2 M sulfuric acid, and absorbance at 450 nm was measured using a microplate reader (BioTek, Winooski, VT, USA). After calculating the inhibition rate, the IC50 value was determined.

MCF-7 cells = assay: MTT cell viability assay, MCF-7; conditions: Homo sapiens, MCF7, 72 h, read-out: IC50 MCF-7
Description: (§1) The viability assay was measured by a 3-(4,5-dimethylthiazol-2-yl)−2,5-diphenyltetrazolium bromide (MTT) assay.
(§2) In brief, cells were seeded at a density of 6,000 cells in 96-well plates and cultured overnight. […] After aspiration of the medium, the formazan crystals were dissolved in 100 μL of DMSO. The absorbance at 490 nm was measured using a microplate reader (BioTek). All these analyses were performed at least three times.

MDA-MB-231 cells = assay: MTT cell viability assay, MDA-MB-231; conditions: Homo sapiens, MDA-MB-231, 72 h, read-out: IC50 MDA-MB-231
Description: as §1, §2

IC50 (recombinant HDAC6) | IC50 (PARP1) | IC50 (MCF-7 cells) | IC50 (MDA-MB-231 cells) | SMILES | p-H2A.X levels (DNA DSBs) (p-H2A.X)
> 10000 nM | 12.7 nM | 4930 ± 1090 nM | 2830 ± 400 nM | Nc1cc(F)ccc1NC(=O)CCc1ccc(CN2CCN(C(=O)c3cc(Cc4n[nH]c(=O)c5ccccc45)ccc3F)CC2)cc1 [Compound B302] | increased p-H2A.X (S136) levels
> 10000 nM | 19 nM | 13400 ± 3200 nM | 160 ± 20 nM | Nc1cc(F)ccc1NC(=O)/C=C/c1ccc(CN2CCN(C(=O)c3cc(Cc4n[nH]c(=O)c5ccccc45)ccc3F)CC2)cc1 [Compound B102] | increased p-H2A.X (S136) levels

Reference: publication PMC10770036, “Novel dual inhibitors of PARP and HDAC induce intratumoral STING-mediated antitumor immunity in triple-negative breast cancer” (Cell Death & Disease, 2024)
